Measurements from US20110269812A1, “NOVEL BENZYLIDENE-INDOLINONE AND THEIR MEDICAL AND DIAGNOSTIC USES” (Agency for Science, Technology and Research, priority 2008, published 2011).
Read-outs that look alike come from different tables or passages of the source.

Legend:
[1] = system: HepG2; assay: cells; format: cell-based, human; conditions: for viability at 10 µM / IC50: Homo sapiens; for viability at 10 µM: vs vehicle-treated controls, read-out: Percentage viability HepG2; for IC50: read-out: IC50 HepG2; for SR(HepG2/THLE2) safety ratio: percentage viability at 10 μM normalized with THLE2
Description: (§1) Cells were plated at 5000-7000 cells/per well and incubated for 24 h before treatment. […] Cell Titer-Glo (Promega, Madison, Wis.) assay was performed according to manufacturer's instruction with luminescence detected on SpectraMax M5 (Molecular Devices, Sunnyvale, Calif.). Data was expressed as percentage of viability vs. vehicle-treated controls.
(§2) The anti-cancer potential of these compounds against HCC were tested using a phenotypic assay where compounds were screened over 100-fold concentration range (0.1 to 10 μM) using two representative liver cancer cell lines, HepG2 and HuH7. Additionally, THLE2 was employed as normal hepatocyte cell line to differentiate anti-cancer potential from non-specific cytotoxicities.
(§3) Cell viability assay shown in FIG. 2 was analyzed by Prism5 for the determination of respective IC50 values.
(§4) Cell viability was determined as described previous in Table 7. Percentage viability at 10 μM treatments was determined and safety ratios were calculated by normalizing survival in HCC cell lines to THLE2.

[2] = system: HuH7; assay: cells; format: cell-based, human; conditions: for viability at 10 µM / IC50: Homo sapiens; for viability at 10 µM: vs vehicle-treated controls, read-out: Percentage viability HuH7; for IC50: read-out: IC50 HuH7; for SR(HuH7/THLE2) safety ratio: percentage viability at 10 μM normalized with THLE2
Description: as §1, §2, §3, §4

[3] = system: THLE2; assay: Cell viability assay (Cell Titer-Glo), THLE2 normal hepatocyte cell line; format: cell-based; conditions: Homo sapiens, read-out: IC50 THLE2
Description: as §1, §2, §3

[4] = system: NQO1; assay: Induction of NQO1 (QR) activity in Hepa1c1c7 cells
[5] = system: Hepa1c1c7 cells; assay: MTT growth inhibition / cytotoxicity on Hepa1c1c7 cells; format: cell-based, murine; conditions: Mus musculus, Hepa-1c1c7, 48 h, highest concentration tested 25 μM
Description: The antiproliferative activity of the compounds according to the invention was determined by the MTT assay on the following cell lines: MCF7 (human breast cancer cell line), HCT116 (human colon cancer cell line), and CCL186 (normal human diploid embryonic lung fibroblast). […] MCF7 and CCL186 cells were cultured in Eagle's Minimum Essential Medium (EMEM) with 1 mM sodium pyruvate, 1.5 g/L sodium bicarbonate, 2 mM L-glutamine supplemented with 10% FBS and 0.01% antibiotics. HCT116 cells were cultured in McCoy's 5A Medium with 2.2 g/L sodium bicarbonate supplemented with […] and 0.01% antibiotics. Cells were plated at the following densities: 10000 cells/well (MCF7), 4000 cells/well (HCT116), 5000 cells/well (CCL186). They were grown for 24 h in a 96-well plate, with 100 μl of corresponding medium in each well. The test compounds were prepared in DMSO and diluted to a series of concentrations with medium. Not more than 1% DMSO (final concentration) was present in each well. The test compounds were incubated with the cells for 72 h, after which 100 μl MTT solution (0.5 mg/ml in 1× PBS) was added for 3 h and the cells lysed to release the formazan product. The latter was dissolved in DMSO (150 μl) and absorbance determined within 30 min at 590 nm on a microtitre plate reader. Cell survival was given by the expression:
Cell survival (%)=[(Acells+test compound−Ablank)/(Auntreated cells−Ablank)]×100
where A is the absorbance of formazan measured at 590 nm in the test (Acells+test compound), control (Auntreated cells) or blank (Ablank) wells. Each concentration of test compound was evaluated on 3 separate occasions. […] The MTT assay was also carried out on Hepa1c1c7 cells for the purpose of determining cytotoxicity of test compounds. The same procedure was adopted except that the incubation period of compound with cells was 48 h, instead of 72 h.

[6] = system: CYP1A1; assay: 7-ethoxyresorufin O-deethylase (EROD) assay, CYP1A1 induction in Hepa1c1c7 cells; format: cell-based, murine
Description: Hepa1c1c7 cells were plated at a density of 10000 cells per well in a 96-well plate and cultured for 24 h. A stock solution of test compound was prepared in DMSO and serially diluted with medium to give the desired concentration in the well. The final concentration of DMSO was 0.5% v/v. The cells were incubated with test compound for 48 h, after which the medium was removed, the well washed with 200 μl of 1×phosphate-buffered saline solution (PBS) and then incubated with 5 μM 7-ethoxyresorufin and 2 mM salicylamide in 200 μl of medium at 37° C., 40 min. Readings were taken at λexcitation of 530 nm and λemission of 590 nm on a fluorometer. Fluorescence (if any) of the test compound was determined at the same wavelengths to take into account its contribution to the observed readings. Readings of empty wells (no cells, “blank”) and wells with Hepa1c1c7 cells in medium containing 0.5% DMSO but without test compound (“control”) were also determined. TCDD, a strong inducer of CYP1A1 activity, as well as BNF and sulforaphane were used as controls.
CYP1A1 induction activity was given by the expression:
Degree of induction=FCells+test compound−FBlank/FControl−FBlank
The EROD assay was used for this purpose (Burke, M. D.; Mayer, R. T., Drug Metab Dispos 1974, 2, 583). EROD activity describes the rate at which CYP1A1 caused the O-deethylation of 7-ethoxyresorufin to resorufm. […] This ratio was determined for compounds at concentrations that were approximately 4 times their CD values. A fixed concentration was not used here because it would be difficult to select this concentration in view of the large variation in NQO1 induction activities. The quotient of NQO1 and CYP1A1 induction ratios (ratio determined at the same concentration) was also obtained for each compound. Values >1 would imply greater induction of NQO1 relative to CYP1A1.

[7] = 1 μM, read off from plot of degree of induction versus concentration

Compound	viability at 10 µM ([1]; HepG2, 72 h)	viability at 10 µM ([2]; Huh-7, 72 h)	IC50 [5]	melting point	IC50 ([1]; HepG2, 72 h)	SR(HepG2/THLE2) safety ratio [1]	IC50 ([2]; Huh-7, 72 h)	SR(HuH7/THLE2) safety ratio [2]	IC50 ([3]; THLE-2, 72 h)	NQO1 induction ratio [4, 7]	CYP1A1 induction ratio ([6]; 1 μM, 48 h)	also measured
CCN(CC)CCNC(=O)c1c(C)[nH]c(/C=C2\C(=O)Nc3ccc(F)cc32)c1C [Sunitinib, reference compound]	1.8 ± 0.3%	3.4 ± 0.2%										IC50 ([1]; HepG2, viability (intracellular ATP, Cell Titer-Glo), 72 h, 0.1 to 10 μM): 4.5 µM; IC50 ([2]; Huh-7, viability (intracellular ATP, Cell Titer-Glo), 72 h, 0.1 to 10 μM): 4.7 µM; IC50 ([3]; THLE-2, viability (intracellular ATP, Cell Titer-Glo), 72 h, 0.1 to 10 μM, normal liver cell line): 4.5 µM
COc1cccc(/C=C2/C(=O)Nc3cc(Cl)ccc32)c1 [Compound 41, (E)-6-Chloro-3-(3-methoxybenzylidene)indolin-2-one]	46.4 ± 2.5%	102 ± 6.9%	> 25 µM	198 to 200 °C	8.5 µM	1.90	> 10 µM	0.87	> 10 µM			NQO1 induction ratio ([4]; 0.1 μM, read off from plot): 2.56; NQO1/CYP1A1 Quotient ([4]; both ratios at 0.1 μM): 1.70; CYP1A1 induction ratio ([6]; 0.1 μM, 48 h): 1.51 ± 0.13
O=c1cc(-c2ccccc2)oc2ccc3ccccc3c12 [BNF, β-naphthoflavone, reference compound]												NQO1 induction ratio ([4]; 0.01 μM): 1.83; NQO1/CYP1A1 Quotient ([4]; both ratios at 0.01 μM): 1.62; CYP1A1 induction ratio ([6]; 0.01 μM, read off from a curve): 1.13
COc1ccc(/C=C2/C(=O)Nc3cc(Cl)ccc32)cc1O [Compound 44, (E)-6-Chloro-3-(3-hydroxy-4-methoxybenzylidene)indolin-2-one]	15 ± 1.3%	63 ± 4%	> 25 µM	220 to 223 °C	1 µM	5.72	> 10 µM	1.36	> 10 µM	5.09	2.33 ± 0.13	NQO1/CYP1A1 Quotient ([4]; both ratios at 1 μM): 2.18
C[S+]([O-])CCCCN=C=S (centres unmarked) [sulforaphane, reference compound]										3.89	0.924	
Clc1cc2c(cc1Cl)Oc1cc(Cl)c(Cl)cc1O2 [TCDD, 2,3,7,8-Tetrachlorodibenzo-p-dioxin, reference compound]												CYP1A1 induction ratio (EROD assay) ([6]; 1 nM): 2.99
COc1cccc(/C=C2/C(=O)Nc3ccc(Cl)cc32)c1 [Compound 40, (E)-5-Chloro-3-(3-methoxybenzylidene)indolin-2-one]	46.1 ± 2.2%	57.5 ± 6.6%	17.5 µM	212 to 214 °C	9.2 µM	1.93	> 10 µM	1.55	> 10 µM			NQO1 induction ratio ([4]; 2.5 μM, read off from plot): 4.34; NQO1/CYP1A1 Quotient ([4]; both ratios at 2.5 μM): 3.29; CYP1A1 induction ratio ([6]; 2.5 μM, 48 h): 1.32 ± 0.08
COc1cccc(/C=C2/C(=O)Nc3cc(F)ccc32)c1 [Compound 39, (E)-6-Fluoro-3-(3-methoxybenzylidene)indolin-2-one]	40 ± 4.2%	65.8 ± 1.1%	9.8 µM	169 to 170 °C	7.6 µM	1.95	> 10 µM	1.19	> 10 µM	3.21	1.25 ± 0.06	NQO1/CYP1A1 Quotient ([4]; both ratios at 1 μM): 2.57
COc1ccc(/C=C2/C(=O)Nc3cc(F)ccc32)cc1O [Compound 43, (E)-6-Fluoro-3-(3-hydroxy-4-methoxybenzylidene)indolin-2-one]	28.3 ± 6.7%	84.1 ± 7.5%	15.6 µM	225 to 227 °C	1.2 µM	3.63	> 10 µM	1.22	> 10 µM			NQO1 induction ratio ([4]; 0.5 μM, read off from plot): 4.10; NQO1/CYP1A1 Quotient ([4]; both ratios at 0.5 μM): 2.00; CYP1A1 induction ratio ([6]; 0.5 μM, 48 h): 2.05 ± 0.07
